Drawing on patent US20240100170A1, “CYCLIC-AMP RESPONSE ELEMENT BINDING PROTEIN (CBP) AND/OR ADENOVIRAL E1A BINDING PROTEIN OF 300 KDA (P300) DEGRADATION COMPOUNDS AND METHODS OF USE” (CULLGEN (SHANGHAI), INC., priority 2020, published 2024), this text covers IC50 and inhibition for 12 compounds.

The subject of experiment [1] is LNCaP prostate cancer cell. The experiment in a line: LNCaP cell viability (CellTiter-Glo). The format is cell-based. The following applies: Homo sapiens, 72 h; LNCaP cell viability, 3 days, CellTiter-Glo; Table 4. The method in brief:
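LNCaP cells (5000/well, RPMI 1640 + 10% FBS, 37 °C) treated with compounds in 12-point 3-fold serial dilution for three days. Viability read by CellTiter-Glo luminescence, normalized to untreated cells; IC50 from least-squares nonlinear regression.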
(ATP-based viability assays read luminescence as a measure of living cells.)

Experiment [2] has as its target P300 (Homo sapiens, UniProt Q09472). Nature of the experiment: percentage of inhibition (degradation) of p300 at 10 nM, Tables 2-4. The format is cell-based. The following applies: read-out: Degradation (10 nM). Details: LNCaP or 22RV1 cells that express CBP/P300 proteins were treated with GNE-781 or the bivalent compounds; endogenous in cells; host or cells: LNCaP or 22RV1 (not given). The method in brief:
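Degradation was measured at 10 nM. Cells or tissue were lysed in RIPA with protease and phosphatase inhibitors for 30 min at 4 °C and cleared, and protein was quantified by BCA. Lysates were resolved by SDS-PAGE, detected by chemiluminescent immunoblot, and bands were quantified by densitometry.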

SMILES strings stand for the structures. pIC50: −log10 of the molar value. Read-outs that look alike come from different tables or passages of the source. A value given as a limit tells only on which side of the number the result lay.

Sequence of P300 (Q09472 whole entry): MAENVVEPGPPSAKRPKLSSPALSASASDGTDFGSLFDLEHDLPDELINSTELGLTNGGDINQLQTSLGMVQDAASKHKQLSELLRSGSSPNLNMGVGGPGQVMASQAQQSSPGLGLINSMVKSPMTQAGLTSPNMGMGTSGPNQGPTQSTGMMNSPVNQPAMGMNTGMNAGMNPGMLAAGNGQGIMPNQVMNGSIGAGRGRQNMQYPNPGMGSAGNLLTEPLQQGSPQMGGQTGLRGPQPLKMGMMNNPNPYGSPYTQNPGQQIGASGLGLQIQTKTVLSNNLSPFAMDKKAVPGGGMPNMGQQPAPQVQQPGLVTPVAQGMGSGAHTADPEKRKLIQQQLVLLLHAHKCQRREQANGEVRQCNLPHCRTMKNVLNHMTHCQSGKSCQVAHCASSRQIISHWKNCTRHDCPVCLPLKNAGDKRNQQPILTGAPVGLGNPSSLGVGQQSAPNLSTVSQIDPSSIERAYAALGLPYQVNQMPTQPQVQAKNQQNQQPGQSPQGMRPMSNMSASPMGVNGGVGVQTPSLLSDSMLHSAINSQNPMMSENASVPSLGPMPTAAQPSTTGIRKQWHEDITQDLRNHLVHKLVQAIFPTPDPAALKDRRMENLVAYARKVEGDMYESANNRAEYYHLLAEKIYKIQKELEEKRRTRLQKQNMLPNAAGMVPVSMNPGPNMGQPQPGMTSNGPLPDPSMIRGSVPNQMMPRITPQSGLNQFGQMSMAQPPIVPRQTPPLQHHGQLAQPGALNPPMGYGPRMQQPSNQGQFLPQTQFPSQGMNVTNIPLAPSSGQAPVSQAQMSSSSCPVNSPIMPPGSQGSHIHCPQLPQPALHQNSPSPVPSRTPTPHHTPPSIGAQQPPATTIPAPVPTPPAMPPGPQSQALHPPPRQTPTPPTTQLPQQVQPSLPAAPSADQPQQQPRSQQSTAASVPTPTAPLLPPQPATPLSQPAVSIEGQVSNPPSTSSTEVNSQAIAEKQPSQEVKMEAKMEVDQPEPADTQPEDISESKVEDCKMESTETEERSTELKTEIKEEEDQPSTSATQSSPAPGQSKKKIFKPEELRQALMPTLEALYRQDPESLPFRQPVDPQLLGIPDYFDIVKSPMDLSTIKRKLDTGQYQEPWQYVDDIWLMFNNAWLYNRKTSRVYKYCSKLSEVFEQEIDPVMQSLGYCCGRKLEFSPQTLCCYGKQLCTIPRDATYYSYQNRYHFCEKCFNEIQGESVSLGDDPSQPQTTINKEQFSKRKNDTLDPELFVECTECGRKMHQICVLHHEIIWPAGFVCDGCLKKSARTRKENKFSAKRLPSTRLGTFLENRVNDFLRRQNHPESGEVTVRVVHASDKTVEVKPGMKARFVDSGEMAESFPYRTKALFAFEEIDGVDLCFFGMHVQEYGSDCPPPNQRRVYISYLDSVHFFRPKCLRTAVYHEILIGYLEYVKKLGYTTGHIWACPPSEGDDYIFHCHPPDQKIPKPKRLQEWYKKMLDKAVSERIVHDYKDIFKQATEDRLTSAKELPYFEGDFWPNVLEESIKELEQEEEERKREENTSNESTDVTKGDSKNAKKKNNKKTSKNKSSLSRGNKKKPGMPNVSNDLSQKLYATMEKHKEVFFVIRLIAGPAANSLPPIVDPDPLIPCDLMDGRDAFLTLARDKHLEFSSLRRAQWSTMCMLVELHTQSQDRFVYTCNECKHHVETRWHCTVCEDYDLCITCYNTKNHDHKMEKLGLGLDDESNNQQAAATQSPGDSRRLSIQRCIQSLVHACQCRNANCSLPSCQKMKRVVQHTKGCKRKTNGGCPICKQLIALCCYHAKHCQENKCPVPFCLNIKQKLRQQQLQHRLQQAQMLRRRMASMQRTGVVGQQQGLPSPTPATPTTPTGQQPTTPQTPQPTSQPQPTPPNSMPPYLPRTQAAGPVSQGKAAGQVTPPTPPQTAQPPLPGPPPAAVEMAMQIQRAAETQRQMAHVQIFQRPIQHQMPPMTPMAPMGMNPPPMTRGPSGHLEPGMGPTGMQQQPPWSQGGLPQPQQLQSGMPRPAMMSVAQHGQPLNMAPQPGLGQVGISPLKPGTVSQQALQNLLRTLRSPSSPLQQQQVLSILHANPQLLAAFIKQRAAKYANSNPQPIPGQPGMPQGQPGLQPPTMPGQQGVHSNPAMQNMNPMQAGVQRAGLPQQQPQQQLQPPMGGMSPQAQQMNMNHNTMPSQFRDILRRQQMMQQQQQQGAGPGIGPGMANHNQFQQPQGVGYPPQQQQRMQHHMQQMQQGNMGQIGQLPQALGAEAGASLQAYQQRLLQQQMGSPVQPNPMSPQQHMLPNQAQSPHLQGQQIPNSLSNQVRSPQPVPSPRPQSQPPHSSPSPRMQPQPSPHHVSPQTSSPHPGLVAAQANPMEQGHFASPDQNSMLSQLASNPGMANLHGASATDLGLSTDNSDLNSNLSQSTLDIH

For orientation: pIC50 means the IC50 on a negative log10 scale, so that one unit is a factor of ten. A higher pIC50 goes with a low IC50. `CC(=O)N1CCc2c(c(N3CCCc4cc(-c5cnn(C)c5)c(C(F)F)cc43)nn2C2CCN(CCN3CCC4(CC3)CN(c3cccc5c3C(=O)N(C3CCC(=O)NC3=O)C5=O)C4)CC2)C1` (stereo not drawn) [P-245, 4-(7-(2-(4-(5-acetyl-3-(7-(difluoromethyl)-6-(1-methyl-1H-pyrazol-4-yl)-3,4-dihydroquinolin-1(2H)-yl)-4,5,6,7-tetrahydro-1H-pyrazolo[4,3-c]pyridin-1-yl)piperidin-1-yl)ethyl)-2,7-diazaspiro[3.5]nonan-2-yl)-2-(2,6-dioxopiperidin-3-yl)isoindoline-1,3-dione]: the negative logarithm of the IC50 (pIC50) in experiment [1] was less than 6.30. In experiment [2], the inhibition at 0.01 µM was in the range of 20 to 50%.

In turn, `CC(=O)N1CCc2c(c(N3CCCc4cc(-c5cnn(C)c5)c(C(F)F)cc43)nn2C2CCN(CCC3CCN(CCCc4cccc5c4C(=O)N(C4CCC(=O)NC4=O)C5=O)CC3)CC2)C1` (stereo not drawn) [P-246, 4-(3-(4-(2-(4-(5-acetyl-3-(7-(difluoromethyl)-6-(1-methyl-1H-pyrazol-4-yl)-3,4-dihydroquinolin-1(2H)-yl)-4,5,6,7-tetrahydro-1H-pyrazolo[4,3-c]pyridin-1-yl)piperidin-1-yl)ethyl)piperidin-1-yl)propyl)-2-(2,6-dioxopiperidin-3-yl)isoindoline-1,3-dione] had a pIC50 in experiment [1] of 6.53. The inhibition at 0.01 µM in experiment [2] (p300, 10 nM, Table 4) was 20 to 50%.

In turn, `CC(=O)N1CCc2c(c(N3CCCc4cc(-c5cnn(C)c5)c(C(F)F)cc43)nn2C2CCN(CCCN3CCN(c4cccc5c4C(=O)N(C4CCC(=O)NC4=O)C5=O)CC3)CC2)C1` (stereo not drawn) [P-247, 4-(4-(3-(4-(5-Acetyl-3-(7-(difluoromethyl)-6-(1-methyl-1H-pyrazol-4-yl)-3,4-dihydroquinolin-1(2H)-yl)-4,5,6,7-tetrahydro-1H-pyrazolo[4,3-c]pyridin-1-yl)piperidin-1-yl)propyl)piperazin-1-yl)-2-(2,6-dioxopiperidin-3-yl)isoindoline-1,3-dione] gave a pIC50 in experiment [1] of less than 6.30. The inhibition at 0.01 µM in experiment [2] (p300, 10 nM, Table 4) was less than 20%.

In experiment [1], `CC(=O)N1CCc2c(c(N3CCCc4cc(-c5cnn(C)c5)c(C(F)F)cc43)nn2C2CCN(CCCC3CCN(c4cccc5c4C(=O)N(C4CCC(=O)NC4=O)C5=O)CC3)CC2)C1` (stereo not drawn) [P-249, 4-(4-(3-(4-(5-acetyl-3-(7-(difluoromethyl)-6-(1-methyl-1H-pyrazol-4-yl)-3,4-dihydroquinolin-1(2H)-yl)-4,5,6,7-tetrahydro-1H-pyrazolo[4,3-c]pyridin-1-yl)piperidin-1-yl)propyl)piperidin-1-yl)-2-(2,6-dioxopiperidin-3-yl)isoindoline-1,3-dione] showed a negative-log IC50 (pIC50) of 10.00. Besides, the inhibition at 0.01 µM in experiment [2] (p300, 10 nM, Table 4) was greater than 80%.

As for `CC(=O)N1CCc2c(c(N3CCCc4cc(-c5cnn(C)c5)c(C(F)F)cc43)nn2C2CCN(CCCN3CCC(C#Cc4cccc5c4n(C)c(=O)n5C4CCC(=O)NC4=O)CC3)CC2)C1` (stereo not drawn) [P-250, 3-(4-((1-(3-(4-(5-acetyl-3-(7-(difluoromethyl)-6-(1-methyl-1H-pyrazol-4-yl)-3,4-dihydroquinolin-1(2H)-yl)-4,5,6,7-tetrahydro-1H-pyrazolo[4,3-c]pyridin-1-yl)piperidin-1-yl)propyl)piperidin-4-yl)ethynyl)-3-methyl-2-oxo-2,3-dihydro-1H-benzo[d]imidazol-1-yl)piperidine-2,6-dione], in experiment [1], the pIC50 was 9.52. The inhibition at 0.01 µM in experiment [2] (p300, 10 nM, Table 4) is greater than 80%.

In experiment [1], `CC(=O)N1CCc2c(c(N3CCCc4cc(-c5cnn(C)c5)c(C(F)F)cc43)nn2C2CCN(CCN3CCC(C#Cc4cccc5c4n(C)c(=O)n5C4CCC(=O)NC4=O)CC3)CC2)C1` (stereo not drawn) [P-251, 3-(4-((1-(2-(4-(5-acetyl-3-(7-(difluoromethyl)-6-(1-methyl-1H-pyrazol-4-yl)-3,4-dihydroquinolin-1(2H)-yl)-4,5,6,7-tetrahydro-1H-pyrazolo[4,3-c]pyridin-1-yl)piperidin-1-yl)ethyl)piperidin-4-yl)ethynyl)-3-methyl-2-oxo-2,3-dihydro-1H-benzo[d]imidazol-1-yl)piperidine-2,6-dione] gave a pIC50 of 10.00. Also, in experiment [2], the inhibition at 0.01 µM is greater than 80%.

For `CC(=O)N1CCc2c(c(N3CCCc4cc(-c5cnn(C)c5)c(C(F)F)cc43)nn2C2CCN(CCN3CCC(CCc4cccc5c4n(C)c(=O)n5C4CCC(=O)NC4=O)CC3)CC2)C1` (stereo not drawn) [P-252, 3-(4-(2-(1-(2-(4-(5-acetyl-3-(7-(difluoromethyl)-6-(1-methyl-1H-pyrazol-4-yl)-3,4-dihydroquinolin-1(2H)-yl)-4,5,6,7-tetrahydro-1H-pyrazolo[4,3-c]pyridin-1-yl)piperidin-1-yl)ethyl)piperidin-4-yl)ethyl)-3-methyl-2-oxo-2,3-dihydro-1H-benzo[d]imidazol-1-yl)piperidine-2,6-dione], the pIC50 in experiment [1] was 10.00. The inhibition at 0.01 µM in experiment [2] is greater than 80%.

In experiment [1], `CC(=O)N1CCc2c(c(N3CCCc4cc(-c5cnn(C)c5)c(C(F)F)cc43)nn2C2CCN(C(=O)CCCNc3ccc(C(=O)NC4CCC(=O)NC4=O)c4ncccc34)CC2)C1` (stereo not drawn) [P-253, 5-((4-(4-(5-acetyl-3-(7-(difluoromethyl)-6-(1-methyl-1H-pyrazol-4-yl)-3,4-dihydroquinolin-1(2H)-yl)-4,5,6,7-tetrahydro-1H-pyrazolo[4,3-c]pyridin-1-yl)piperidin-1-yl)-4-oxobutyl)amino)-N-(2,6-dioxopiperidin-3-yl)quinoline-8-carboxamide] showed a pIC50 of 8.59. Besides, the inhibition at 0.01 µM in experiment [2] (p300, 10 nM, Table 4) is greater than 80%.

For `CC(=O)N1CCc2c(c(N3CCCc4cc(-c5cnn(C)c5)c(C(F)F)cc43)nn2C2CCN(C(=O)CNc3ccc(C(=O)NC4CCC(=O)NC4=O)c4ncccc34)CC2)C1` (stereo not drawn) [P-254, 5-((2-(4-(5-acetyl-3-(7-(difluoromethyl)-6-(1-methyl-1H-pyrazol-4-yl)-3,4-dihydroquinolin-1(2H)-yl)-4,5,6,7-tetrahydro-1H-pyrazolo[4,3-c]pyridin-1-yl)piperidin-1-yl)-2-oxoethyl)amino)-N-(2,6-dioxopiperidin-3-yl)quinoline-8-carboxamide], the pIC50 in experiment [1] was 8.29. Moreover, in experiment [2] (p300, 10 nM, Table 4), the inhibition at 0.01 µM is greater than 80%.

Compound `CC(=O)N1CCc2c(c(N3CCCc4cc(-c5cnn(C)c5)c(C(F)F)cc43)nn2C2CCN(C(=O)CC3CCN(c4ccc(C(=O)NC5CCC(=O)NC5=O)c5ncccc45)CC3)CC2)C1` (stereo not drawn) [P-256, 5-(4-(2-(4-(5-acetyl-3-(7-(difluoromethyl)-6-(1-methyl-1H-pyrazol-4-yl)-3,4-dihydroquinolin-1(2H)-yl)-4,5,6,7-tetrahydro-1H-pyrazolo[4,3-c]pyridin-1-yl)piperidin-1-yl)-2-oxoethyl)piperidin-1-yl)-N-(2,6-dioxopiperidin-3-yl)quinoline-8-carboxamide] had a pIC50 in experiment [1] of 8.89. For the same compound, the inhibition at 0.01 µM in experiment [2] (p300, 10 nM, Table 4) was greater than 80%.

`CC(=O)N1CCc2c(c(N3CCCc4cc(-c5cnn(C)c5)c(C(F)F)cc43)nn2C2CCN(C(=O)CCCCCCCCC(=O)Nc3cccc(NC4CCC(=O)NC4=O)c3)CC2)C1` (stereo not drawn) [P-264, 10-(4-(5-Acetyl-3-(7-(difluoromethyl)-6-(1-methyl-1H-pyrazol-4-yl)-3,4-dihydroquinolin-1(2H)-yl)-4,5,6,7-tetrahydro-1H-pyrazolo[4,3-c]pyridin-1-yl)piperidin-1-yl)-N-(3-((2,6-dioxopiperidin-3-yl)amino)phenyl)-10-oxodecanamide] gave a pIC50 in experiment [1] of 6.31. Further, the inhibition at 0.01 µM in experiment [2] (p300, 10 nM, Table 4) is less than 20%.

`CC(=O)N1CCc2c(c(N3CCCc4cc(-c5cnn(C)c5)c(C(F)F)cc43)nn2C2CCN(C(=O)CCCCCCCCCC(=O)Nc3cccc(NC4CCC(=O)NC4=O)c3)CC2)C1` (stereo not drawn) [P-265, 11-(4-(5-Acetyl-3-(7-(difluoromethyl)-6-(1-methyl-1H-pyrazol-4-yl)-3,4-dihydroquinolin-1(2H)-yl)-4,5,6,7-tetrahydro-1H-pyrazolo[4,3-c]pyridin-1-yl)piperidin-1-yl)-N-(3-((2,6-dioxopiperidin-3-yl)amino)phenyl)-11-oxoundecanamide] showed a pIC50 in experiment [1] of 6.23. In experiment [2] (p300, 10 nM, Table 4), the inhibition at 0.01 µM was less than 20%.
